What was measured:
[1] = system: caspase-3, Bid and Bax; assay: Western blotting of caspase-3 activation, Bid and Bax in primary rat hepatocytes; format: cell-based
Excerpt: Male outbred Sprague-Dawley rats (200-300 g, Iffa Credo, Brussels, Belgium) were kept under controlled environmental conditions (12-hr light-dark cycle) and fed a standard diet (Animafabo A04, water ad libitum). Hepatocytes were isolated by a two-step collagenase perfusion as described (De Smet et al. In ‘Methods in Molecular Biology, Vol. 107: Cytochrome P450 Protocols’, Philips I R and Shephard E A, eds., pp 295-301, Humana Press, Totowa, 1998). Cell liability was >90% as determined by trypan blue exclusion. Cells (0.4×10^5 cells/cm^2) were plated in MEM/M199 (3:1), containing BSA (1 mg/ml), bovine insulin (10 μg/ml), L-glutamine (2 mM), FBS (10% v/v) and antibiotics (7.3 IU/ml benzyl penicillin, 50 μg/ml streptomycin sulphate, 50 μg/ml kanamycin monosulphstep and 10 μg/ml sodium ampicillin). Four hours after plating, serum-containing medium was removed and fresh serum-free medium was added to the cultures. Culture medium was refreshed daily. EGF (50 ng/ml) was added 4 hours after plating. A 100 mM stock solution of 4-Me2N-BAVAH was prepared in ethanol.
(§1) Total cell extracts were prepared as described previously (Papeleu et al. J Hepatol 39: 374-382, 2003) and proteins (25 or 50 μg per lane) were separated electrophoretically by SDS-PAGE and electroblotted onto nitrocellulose membranes (Amersham Pharmacia Biotech, Buckinghamshire, UK). Equal sample loading was verified by immersion of the membranes in Ponceau S. Unspecific binding sites were blocked with 5% skim milk/Tris-buffered saline. Incubations with primary antibodies were performed overnight at 4° C. under gentle shaking. Proteins were detected using the ECL detection system (Amersham Pharmacia Biotech, Buckinghamshire, UK) according to the manufacturer's recommendations.

[2] = system: ERK1/2; assay: Western blotting of ERK1/2 phosphorylation in synchronized hepatocytes; format: cell-based, rat; settings: 50 μM + EGF; initial 30 min
Procedure: as §1
(§2) Early cell cycle events can be triggered by distinct signalling pathways, activated by EGF, namely: the MEK/ERK, the mTOR/p70S6k, and the Pak1 pathways. Eventually, they all converge on cyclin D1 and play thus an essential role in the regulation of this critical cell cycle protein. […] This was done by culturing the hepatocytes in the absence of EGF for 48 hours, consequently stimulating them with EGF and exposing them to 50 μM 4-Me2N-BAVAH for 0.5, 1 and 3 hours before harvesting. Shortly after stimulation of synchronized primary hepatocytes with EGF, a rapid and sustained phosphorylation of ERK1/2 was observed (FIG. 20A). […]

[3] = system: ribosomal S6 subunit; assay: Western blotting of S6 phosphorylation in synchronized hepatocytes; format: cell-based, rat; settings: 50 μM
Procedure: as §1, §2

[4] = system: rat BMSC; assay: DNA synthesis by [methyl-3H] thymidine incorporation in differentiating rat BMSC; format: cell-based
Procedure: [methyl-3H] thymidine (25 μCiμmol, 2 μCi/ml) incorporation into trichloroacetic acid precipitated-DNA (Amersham Inc) was measured.
BMSC were, 24 h after splitting; cultivated in the presence of LSP cytokines, added either as a cocktail or separately on 10 ng/ml FN at 2.465 10^3 cells/cm^2. […] Media were changed every three days. Samples were taken 2, 4, 6, 12 and 18 h after splitting or media change. Cells were stimulated for 2 h before sampling with 2 μCi [methyl-^3H] thymidine (Amersham Pharmacia Biotech)/ml medium. [methyl-^3H] thymidine incorporation was measured using a scintillation counter (Wallac 1410) with a counting efficiency of 62.4%.

[5] = system: hMSC; assay: Albumin ELISA, ALB secretion by hMSC; format: cell-based, human; settings: for ALB secreted: sequential + 1 μM TSA from day 6
Procedure: Low-density hMSC (CD45^−, Thy^+) were cultivated at 21.5 10^3 cells cm^2 on 1 mg/ml collagen gel type I matrix in the presence of liver-specific (LSP) cytokines, added either as a cocktail [basal medium supplemented with 10 ng/ml FGF-4 (fibroblast growth factor type 4), 20 ng/ml HGF (hepatic growth factor) (all from R&D), 1×ITS (insulin, transferrin, selenious acid) and 0.05 μM Dex (dexamethasone) (all from Sigma)] or sequentially [basal medium supplemented with 10 ng/ml FGF-4, following basal media supplemented with 20 ng/ml HGF (R&D) and finally basal medium supplemented with 20 ng/ml HGF, 1×ITS and 0.05 μM Dex]. Basal medium consisted of 60% (v/v) DMEM-LG/40% (v/v) MCDB-201 supplemented with 1 mg/ml LA-BSA, 100 IU/ml penicillin, 100 μg/ml streptomycin, 0.1 mM L-ascorbic acid, 4 μg/ml nicotinamide, 27.3 mg/l sodium-pyruvate and 1.623 mM glutamin (all from Sigma). The media were changed every three days.
ALB concentrations secreted into the media were analysed by a competitive enzyme-linked immunosorbent assay (ELISA) as described (Koebe et al. Int J Artif Organs 17: 95-106, 1994). The ALB levels were normalized with respect to the media used.

[6] = system: Cx32; assay: Cx32 expression (immunoblotting) in rat hepatocytes; format: cell-based; settings: 1 μM TSA
Procedure: In all conditions, the hepatocytes were cultivated as a monolayer configuration, and samples were taken at days 1, 4 and 7 (D1, D4, D7) of the cultivation time.
Proteins (25 or 50 μg) were resolved on SDS-PAGE (7.5, 10 or 12%) and blotted afterwards onto nitrocellulose membranes. After blocking with non-fatty milk, membranes were incubated with appropriate concentrations of primary and secondary antibodies (HRP labeled). Proteins were detected using the ECL detection system (Amersham Biosciences). Primary antibodies: Cx26 (Zymed, 1/250), Cx32 (Sigma, 1/500), Cx43 (Zymed, 1/100).
Hepatocytes were fixed with cold ethanol, peremeabilised with Triton X-100 (Sigma) and blocked with non-fatty milk. Following incubation with appropriate concentrations of primary and secondary antibodies (FITC or TRITC labeled), samples were mounted with DAPI-containing Vectashield (Vector Laboratories). Detection was performed by fluorescence microscopy (Leica DMR/XA).

[7] = 1 μM TSA first from 168 h cultivation on, sequential

Structure (SMILES) | expression of pro-apoptotic proteins Bid and Bax ([1]; 50 μM) | cleavage of pro-caspase-3 into active p18 fragments ([1]; 24 and 48 hours of culture) | cleavage of pro-caspase-3 into active p18 fragments ([1]; after 72 hours of treatment) | ERK1/2 phosphorylation [2] | S6 phosphorylation [3] | cytotoxicity by microscopic analysis [4] | cell death by microscopic analysis ([4]; 1 μM TSA added from 24 and 96 h on, sequential) | [methyl-3H] thymidine incorporation [4, 7] | cell death by microscopic analysis [4, 7] | DNA synthesis compared with control (sequential without TSA) ([4]; 1 μM TSA from 24, 96 and 168 h on, sequential LSP cytokines) | DNA synthesis compared with control (cocktail-TSA) ([4]; 1 μM TSA from 24 and 96 h of cultivation on, cocktail of LSP cytokines) | cell death by microscopic analysis ([4]; 1 μM TSA from 168 h, cocktail, day 7) | [methyl-3H] thymidine incorporation (DNA synthesis) ([4]; 5 and 25 μM TSA) | [methyl-3H] thymidine incorporation ([4]; first addition of 1 μM TSA from 168 h of cultivation on, cocktail) | ALB secretion ([5]; cocktail + 1 μM TSA, not significant) | ALB levels ([5]; conditioned medium, sequential + TSA, day 17) [µg/mL] | difference in ALB secretion between cells with and without TSA ([5]; conditioned medium, sequential, TSA day 0 until HGF, day 15) [fold] | ALB secreted ([5]; day 15) [µg/mL] | ALB secreted ([5]; day 17) [µg/mL] | expression of Cx32 [6]
CN(C)c1ccc(C(=O)NCCCCC(=O)NO)cc1 [4-Me2N-BAVAH, 5-(4-dimethylaminobenzoyl)-aminovaleric acid hydroxamide] | decreased the expression | significantly lower | completely prevented | increase in ERK1/2 phosphorylation | only a minor increase |  |  |  |  |  |  |  |  |  |  |  |  |  |  | 
CC(C=CC(=O)NO)=CC(C)C(=O)c1ccc(N(C)C)cc1 (centres unmarked) [TSA] |  |  |  |  |  | cytotoxicity | cell death | no [methyl-^3H] thymidine incorporation | No death cells were observed | decrease of the DNA synthesis | increase of the DNA synthesis | no cell death had occurred | no incorporation | no [methyl-^3H] thymidine | upregulation | 2.26 ± 0.092 | 2.28 | 2.019 ± 0.144 | 3.456 ± 0.08 | induces the expressions
